From US10004716B2, “Therapeutic/ preventive agent containing coumarin derivative as active ingredient” (NIPPON ZOKI PHARMACEUTICAL CO., LTD., priority 2014, dated 2018)

How the values were obtained:
[1] = tested on: connective tissue growth factor (CTGF) gene expression; assay: Evaluation I: TGF-β-induced gene expression of fibrosis-related factors in NHLF cells: CTGF; assay type: cell-based, human; conditions: 25 μmol/L test substance 2 hours, then TGF-β 5 ng/mL 24 hours, n = 3
Procedure: NHLF cells were sown so as to make their amount 4×10^4 cells/well to each well of a 12-well plate and incubated to an extent of 80% confluent in a medium where fibroblast growth medium 2 supplement mix (FGM-2 SingleQuots, Lonza) was added to a fibroblast basal medium (FBM, Lonza). After that, incubation was conducted for 2 hours in a Dulbecco modified Eagle medium (DMEM) containing 25 μmol/L of a test substance and, after addition of […] growth factor (TGF)-β thereto so as to make its final concentration 5 ng/mL, incubation was carried out for 24 hours more.
QIAzol Lysis Reagent (QIAGEN) (1 mL) was added to the above to suspend, 200 μL of chloroform was added thereto followed by mixing and centrifugation (at 4° C. and 1500 rpm) was then conducted whereby the supernatant liquid was recovered. Total RNA was extracted and purified by treating the supernatant liquid with QIACube (QIAGEN) and RNeasy Micro Kit (QIAGEN). cDNA was prepared from the total RNA using Omniscript RT kit (QIAGEN) and Oligo(dT)12-18 Primer (Invitrogen).
Gene expression level of the fibrosis-related factors [connective tissue growth factor (CTGF), α-smooth muscle actin (SMA), fibronectin, endothelin and type I collagen (Col 1)] was measured by a conventional real time PCR method using a fluorescent dye SYBR GREEN I (Roche Diagnostics) by Light Cycler LC 480 (the same) using cDNA synthesized from the total RNA extracted in the above (2). A calibration curve was prepared by diluting the PCR product quantified by PicoGreen dsDNA Quantitation kit (Molecular probes) (a DNA quantitation kit) to an extent of 10^2˜10^7 copies/μL. From each of the resulting quantified values, copy numbers per 10000 copies of GAPDH gene being an internal standard were calculated.

[2] = tested on: rats suffering from degenerative intervertebral disk induced by nicotine; assay: Duration of walking time (rotor rod) in rats with degenerative intervertebral disk induced by nicotine; assay type: in vivo; conditions: SD male rats, after 48 days from initiation of exposure to nicotine, 300 seconds maximum, per os once daily, n = 8, normal control 274.1, diseased control 147.7
Procedure: After 16 days from the purchase, SD male rats were organized into normal control group and nicotine group in terms of body weight, 50% reaction threshold value (measuring method will be mentioned later) and duration of walking time and, after 17 days from the purchase, exposure to nicotine was started for a nicotine group. Nicotine was prepared into 344.8 mg/mL using a physiological saline solution, filled into an osmotic pressure pump and retained under the skin of waist of rats. After 21 days from the retaining, an osmotic pressure pump into which a freshly-prepared nicotine solution was filled was retained under the skin of rats of five groups except the normal control group. Nicotine was prepared into […] using a physiological saline solution, filled into an osmotic pressure pump and retained under the skin of waist of the SD male rats.
After 13 days from exposure to nicotine, measurement of 50% reaction threshold value, duration of walking time and body weight were measured and a group organization was done into 6 groups of normal control group, diseased control group, compound 57-administered group, compound 58-administered group, compound 60-administered group and compound 68-administered group.
A test substance was suspended using 0.5 w/v % CMC and, together with stirring, 10 mL/kg of the suspension was repeatedly administered per os once daily after 14 to 52 or 53 days from the initiation of exposure to nicotine using an oral sonde for rats. To the normal control group and the diseased control group, 0.5 w/v % CMC was repeatedly administered per os in the same administration schedule and administration method.
Before the exposure to nicotine and after 48 days from the initiation of the exposure to nicotine, duration of waling time of rats was measured using a rotor rod for both rats and mice. A rotating speed was adjusted in such a manner that, when rotation was started in constant acceleration from the state where a rotor stopped, it reached 15 rotations per minute after 300 seconds. A rat was placed on a rotor which was in a stopped state, then the rotor was rotated, the time until the rat dropped was measured (300 seconds in maximum) and a mean value of three runs was determined.

CTGF gene expression = assay: Evaluation II: TGF-β-induced gene expression of fibrosis-related factors in NHLF cells: CTGF; assay type: cell-based, human; conditions: 30 μM test substance, 200 μg/mL pirfenidone, 30 μM DEX, 1.0 μM TPCA-1 or 10 μM FP 2 hours, then TGF-β 0.5 ng/mL 4 hours, n = 4
Procedure: (§1) NHLF cells were sown so as to make their amount 5×10^4 cells/well to each well of a 12-well plate and incubated to an extent of 80% confluent in a medium where fibroblast growth medium 2 supplement mix (FGM-2 SingleQuots, Lonza) was added to a fibroblast basal medium (FBM, Lonza). After that, incubation was conducted for 2 hours in a DMEM medium containing 30 μM of a test substance, 200 μg/mL of pirfenidone, 30 μM of dexamethasone (DEX), 1.0 μM of TPCA-1 or 10 μM of fluticasone propionate (FP) and, after TGF-β was added thereto so as to make its final concentration 0.5 ng/mL, incubation was carried out for 4 hours more.
(§2) With regard to the extraction of RNA from NHLF cells, the synthesis of cDNA from RNA and the action of the test substance to gene expression of fibrosis-related factors [CFGF, TGF-β1, fibronectin and Col 1], the tests were carried out in the same manners as in (2) and (3) of the above Test Example 3.

TGF-β1 gene expression = assay: Evaluation II: TGF-β-induced gene expression of fibrosis-related factors in NHLF cells: TGF-β1; assay type: cell-based, human; conditions: 30 μM test substance, 200 μg/mL pirfenidone, 30 μM DEX, 1.0 μM TPCA-1 or 10 μM FP 2 hours, then TGF-β 0.5 ng/mL 4 hours, n = 4
Procedure: as §1, §2

[3] = tested on: fibronectin gene expression; assay: Evaluation II: TGF-β-induced gene expression of fibrosis-related factors in NHLF cells: fibronectin; assay type: cell-based, human; conditions: 30 μM test substance, 200 μg/mL pirfenidone, 30 μM DEX, 1.0 μM TPCA-1 or 10 μM FP 2 hours, then TGF-β 0.5 ng/mL 4 hours, n = 4
Procedure: as §1, §2

Col 1 gene expression = assay: Evaluation II: TGF-β-induced gene expression of fibrosis-related factors in NHLF cells: Col 1; assay type: cell-based, human; conditions: 30 μM test substance, 200 μg/mL pirfenidone, 30 μM DEX, 1.0 μM TPCA-1 or 10 μM FP 2 hours, then TGF-β 0.5 ng/mL 4 hours, n = 4
Procedure: as §1, §2

[4] = tested on: mice where pulmonary fibrosis was induced by bleomycin; assay: Lung wet weight increase of mice where pulmonary fibrosis was induced by bleomycin; assay type: in vivo; conditions: ICR male mice, bleomycin 2 mg/kg i.v. 5 days; test substance 50 mg/kg or pirfenidone 200 mg/kg per os twice daily for 2 weeks; normal control 205, diseased control 303
Procedure: Bleomycin (2 mg/kg) was repeatedly injected intravenously for 5 days to ICR male mice. The mice were organized into 4 groups of normal control group, diseased control group, test substance-administered group and pirfenidone-administered group.
A test substance was suspended in 0.5 w/v % carboxymethyl cellulose sodium (CMC) and 50 mg/kg thereof was repeatedly administered per os with stirring twice daily for 2 weeks using an oral sonde for rats. Pirfenidone was suspended in 0.5 w/v % CMC and 200 mg/kg thereof was repeatedly administered per os with stirring twice daily for 2 weeks using an oral sonde for rats. To the normal control group and the diseased control group, 0.5 w/v % CMC was repeatedly administered per os according to the same administration schedule. After finishing the administration period, both lungs were excised from the mice and their wet weight was measured.

SMILES	Copy Numbers per 10000 Copies of GAPDH CTGF [1]	Duration of Walking Time [2]	Copy Numbers per 10000 Copies of GAPDH CTGF (CTGF gene expression)	Copy Numbers per 10000 Copies of GAPDH TGF-β1 (TGF-β1 gene expression)	Copy Numbers per 10000 Copies of GAPDH Fibronectin [3]	Copy Numbers per 10000 Copies of GAPDH Col 1 (Col 1 gene expression)	Wet Lung Weight [4]
O=c1oc2c(OS(=O)(=O)c3ccc(C(F)(F)F)cc3)cccc2cc1NS(=O)(=O)c1cccc(C(F)(F)F)c1 [Compound 57, 2-Oxo-3-[[3-(trifluoromethyl)phenyl]sulfonylamino]-chromen-8-yl 4-(trifluoromethyl)benzenesulfonate]	8963.4 copies per 10000 copies of GAP	187.3 s	–	–	–	–	–
O=c1oc2c(OS(=O)(=O)c3ccc(C(F)(F)F)cc3)cccc2cc1NS(=O)(=O)c1cccc(Br)c1 [Compound 58, 3-[(3-Bromophenyl)sulfonylamino]-2-oxochromen-8-yl 4-(trifluoromethyl)benzenesulfonate]	5020.5 copies per 10000 copies of GAP	210.9 s	115.8 copies per 10000 copies of GAP	704.5 copies per 10000 copies of GAP	1827.5 copies per 10000 copies of GAP	525.6 copies per 10000 copies of GAP	–
O=c1oc2c(OS(=O)(=O)c3cccc(Br)c3)cccc2cc1NS(=O)(=O)c1cccc(C(F)(F)F)c1 [Compound 60, 2-Oxo-3-[[3-(trifluoromethyl)phenyl]sulfonylamino]-chromen-8-yl 3-bromobenzenesulfonate]	13992.0 copies per 10000 copies of GAP	208.4 s	119.0 copies per 10000 copies of GAP	707.1 copies per 10000 copies of GAP	1446.2 copies per 10000 copies of GAP	650.6 copies per 10000 copies of GAP	250 mg
O=c1oc2c(OS(=O)(=O)c3cccc(C(F)(F)F)c3)cccc2cc1NS(=O)(=O)c1ccc(C(F)(F)F)cc1 [Compound 68, 2-Oxo-3-[[4-(trifluoromethyl)phenyl]sulfonylamino]-chromen-8-yl 3-(trifluoromethyl)benzenesulfonate]	10441.5 copies per 10000 copies of GAP	189.2 s	–	–	–	–	–
